Data reported in ChEMBL document CHEMBL1133988 (Bioorg Med Chem Lett, 2001).
In brackets after ≈: the same amount, converted by molar mass.

Legend:
[1] = Binding affinity towards histone deacetylase (HDAC) enzyme derived from chicken liver (CL) cells using [3H]11; design: species or system Gallus gallus
[2] = system: Eimeria tenella; assay: In vitro antiprotozoal activity using […] bovine kidney host cells infected with Eimeria tenella; assay type: functional
[3] = system: Plasmodium falciparum; assay: In vitro antiprotozoal activity against Plasmodium falciparum infected erythrocytes; assay type: functional, organism-based
[4] = molecular target: Histone deacetylase; assay: Inhibitory activity against histone deacetylase (HDAC) enzyme derived from partially purified extracts of human HeLa cells using [3H]11 as radioligand
[5] = Tested in vitro by mammalian antiproliferative functional assay using human HeLa cells or foreskin fibroblasts
[6] = Binding affinity towards HDAC enzyme derived from chicken liver (CL) cells; design: species or system Gallus gallus

Compound | Ki [1] | MIC [2] | IC50 [3] | IC50 [4] | AP50 [5] | Ki [6]
CCC(=O)CCCCC[C@@H]1NC(=O)[C@H]2CCCCN2C(=O)[C@H]([C@@H](C)CC)NC(=O)[C@H](C(=O)c2c[nH]c3ccccc23)NC1=O | 12 nM | 0.125 µg/mL (≈ 0.206 µM) | 0.016 µg/mL (≈ 0.0263 µM) |  |  | 
CCC(=O)CCCCC[C@@H]1NC(=O)[C@H]2CCCCN2C(=O)[C@H]([C@@H](C)CC)NC(=O)[C@H](CC(=O)c2ccccc2[N+](=O)[O-])NC1=O |  | 0.125 µg/mL (≈ 0.199 µM) | 0.5 µg/mL (≈ 0.797 µM) | 91 nM |  | 
CCC(=O)CCCCC[C@@H]1NC(=O)[C@H]2CCCCN2C(=O)[C@H]([C@@H](C)CC)NC(=O)[C@@H](C(=O)Cc2ccccc2)NC1=O |  | 0.5 µg/mL (≈ 0.858 µM) | 0.777 µg/mL (≈ 1.33 µM) |  | >10000 ng/mL | 500 nM
CCC(=O)CCCCC[C@@H]1NC(=O)[C@H]2CCCCN2C(=O)[C@H]([C@@H](C)CC)NC(=O)[C@@H](c2cnc3ccccc3c2O)NC1=O |  | > 1 µg/mL | 0.055 µg/mL (≈ 0.0905 µM) |  | >10000 ng/mL | 500 nM
CCC(=O)CCCCC[C@@H]1NC(=O)[C@H]2CCCCN2C(=O)[C@H]([C@@H](C)CC)NC(=O)[C@H](c2cnc3ccccc3c2O)NC1=O |  | > 1 µg/mL | 0.04 µg/mL (≈ 0.0658 µM) |  | >10000 ng/mL | 1000 nM
CCC(=O)CCCCC[C@@H]1NC(=O)[C@H]2CCCCN2C(=O)[C@H]([C@@H](C)CC)NC(=O)[C@H](c2cn(CC)c3ccccc3c2=O)NC1=O |  | > 1 µg/mL | 0.24 µg/mL (≈ 0.377 µM) |  | >10000 ng/mL | 2000 nM
CCC(=O)CCCCC[C@@H]1NC(=O)[C@H]2CCCCN2C(=O)[C@H]([C@@H](C)CC)NC(=O)[C@H](c2cn(OC)c3ccccc3c2=O)NC1=O |  | 0.25 µg/mL (≈ 0.392 µM) | 0.04 µg/mL (≈ 0.0627 µM) |  | 10000 ng/mL | 1500 nM
CCC(=O)CCCCC[C@@H]1NC(=O)[C@H]2CCCCN2C(=O)[C@H]([C@@H](C)CC)NC(=O)[C@H](CCOc2ccccc2)NC1=O |  | 0.25 µg/mL (≈ 0.428 µM) |  | 34 nM | 1450 ng/mL | 
CCC(=O)CCCCC[C@@H]1NC(=O)[C@H]2CCCCN2C(=O)[C@H]([C@@H](C)CC)NC(=O)[C@H](Cc2c(Br)[nH]c3ccccc23)NC1=O | 3 nM | 0.015 µg/mL (≈ 0.0223 µM) | 0.025 µg/mL (≈ 0.0372 µM) |  |  | 
CCC(=O)CCCCC[C@@H]1NC(=O)[C@H]2CCCCN2C(=O)[C@H]([C@@H](C)CC)NC(=O)[C@H](Cc2c(-c3ccc4c(ccn4C)c3)[nH]c3ccccc23)NC1=O | 5 nM | 0.062 µg/mL (≈ 0.0858 µM) | 0.1 µg/mL (≈ 0.138 µM) |  |  | 
CCC(=O)CCCCC[C@@H]1NC(=O)[C@H]2CCCCN2C(=O)[C@H]([C@@H](C)CC)NC(=O)[C@H](Cc2cn(CC(=O)O)c3ccccc23)NC1=O | 80 nM | > 1 µg/mL | > 1 µg/mL |  |  | 
CCC(=O)CCCCC[C@@H]1NC(=O)[C@H]2CCCCN2C(=O)[C@H]([C@@H](C)CC)NC(=O)[C@H](CC(=O)Cc2ccccc2)NC1=O |  | > 1 µg/mL | 0.85 µg/mL (≈ 1.42 µM) |  | >10000 ng/mL | 2000 nM
CCC(=O)CCCCC[C@@H]1NC(=O)[C@H]2CCCCN2C(=O)[C@H]([C@@H](C)CC)NC(=O)[C@@H](C(=O)c2ccc3c(ccn3C)c2)NC1=O | 20 nM | 0.05 µg/mL (≈ 0.0804 µM) | 0.015 µg/mL (≈ 0.0241 µM) |  |  | 
CCC(=O)CCCCC[C@@H]1NC(=O)[C@H]2CCCCN2C(=O)[C@H]([C@@H](C)CC)NC(=O)[C@@H](C(=O)c2c[nH]c3ccccc23)NC1=O | 30 nM | 0.125 µg/mL (≈ 0.206 µM) | 0.07 µg/mL (≈ 0.115 µM) |  |  | 
CCC(=O)CCCCC[C@@H]1NC(=O)[C@H]2CCCCN2C(=O)[C@H]([C@@H](C)CC)NC(=O)[C@H](CC(=O)C(C)(C)C)NC1=O |  | > 1 µg/mL | 0.775 µg/mL (≈ 1.38 µM) |  | >10000 ng/mL | 2000 nM
CCC(=O)CCCCC[C@@H]1NC(=O)[C@H]2CCCCN2C(=O)[C@H]([C@@H](C)CC)NC(=O)[C@H](c2cnc3ccccc3c2N2CCCCC2)NC1=O [listing 1 of 2 here] |  |  | 0.055 µg/mL (≈ 0.0815 µM) | 13 nM |  | 100 nM

Compound | Ki [1] | MIC [2] | IC50 [3] | IC50 [4] | AP50 [5] | Ki [6]
CCC(=O)CCCCC[C@@H]1NC(=O)[C@H]2CCCCN2C(=O)[C@H]([C@@H](C)CC)NC(=O)[C@H](c2cnc3ccccc3c2N2CCCCC2)NC1=O [listing 2 of 2 here] |  | 0.125 µg/mL (≈ 0.185 µM) |  |  | 2500 ng/mL | 
CCC(=O)CCCCC[C@@H]1NC(=O)[C@H]2CCCCN2C(=O)[C@H]([C@@H](C)CC)NC(=O)[C@H](c2cnc3ccccc3c2Cl)NC1=O [listing 1 of 2 here] |  |  | 0.225 µg/mL (≈ 0.359 µM) | 67 nM |  | 300 nM
CCC(=O)CCCCC[C@@H]1NC(=O)[C@H]2CCCCN2C(=O)[C@H]([C@@H](C)CC)NC(=O)[C@H](c2cnc3ccccc3c2Cl)NC1=O [listing 2 of 2 here] |  | 0.2 µg/mL (≈ 0.319 µM) |  |  | 10000 ng/mL | 
CCC(=O)CCCCC[C@@H]1NC(=O)[C@H]2CCCCN2C(=O)[C@H]([C@@H](C)CC)NC(=O)[C@H](Cc2c(-c3ccccc3)[nH]c3ccccc23)NC1=O |  | > 1 µg/mL | 0.7 µg/mL (≈ 1.04 µM) | 4 nM |  | 
CCC(=O)CCCCC[C@@H]1NC(=O)[C@H]2CCCCN2C(=O)[C@H]([C@@H](C)CC)NC(=O)[C@H](Cc2c(-c3cc(OC)cc(OC)c3)[nH]c3ccccc23)NC1=O |  | 0.125 µg/mL (≈ 0.171 µM) | 0.25 µg/mL (≈ 0.343 µM) | 0.2 nM |  | 
CCC(=O)CCCCC[C@@H]1NC(=O)[C@H]2CCCCN2C(=O)[C@H]([C@@H](C)CC)NC(=O)[C@H](CC2CN(OC)c3ccc(Br)cc32)NC1=O (stereo not given in full) | 4500 nM | 0.1 µg/mL (≈ 0.142 µM) | > 1 µg/mL |  |  | 
CCCCCCCCCCC(=O)C[C@@H]1NC(=O)[C@H](CCCCCC(=O)CC)NC(=O)[C@H]2CCCCN2C(=O)[C@H]([C@@H](C)CC)NC1=O |  | > 1 µg/mL | > 1 µg/mL |  | >10000 ng/mL | > 1000 nM
CCC(=O)CCCCC[C@@H]1NC(=O)[C@H]2CCCCN2C(=O)[C@H]([C@@H](C)CC)NC(=O)[C@H](Cc2cn(OC)c3ccc(Br)cc23)NC1=O | 60 nM | 0.5 µg/mL (≈ 0.712 µM) | 0.55 µg/mL (≈ 0.783 µM) |  |  | 
CCC(=O)CCCCC[C@@H]1NC(=O)[C@H]2CCCCN2C(=O)[C@H]([C@@H](C)CC)NC(=O)[C@H](Cc2c[nH]c3ccccc23)NC1=O |  | 0.031 µg/mL (≈ 0.0522 µM) | 0.035 µg/mL (≈ 0.0589 µM) | 2 nM |  | 
CCCn1cc(C(=O)[C@H]2NC(=O)[C@H](CCCCCC(=O)CC)NC(=O)[C@H]3CCCCN3C(=O)[C@H]([C@@H](C)CC)NC2=O)c2ccccc21 |  | 0.125 µg/mL (≈ 0.192 µM) | 0.15 µg/mL (≈ 0.231 µM) | 15 nM |  | 
CCC(=O)CCCCC[C@@H]1NC(=O)[C@H]2CCCCN2C(=O)[C@H]([C@@H](C)CC)NC(=O)[C@H](Cc2cn(CN3CCCC3)c3ccccc23)NC1=O |  | 0.031 µg/mL (≈ 0.0458 µM) | 0.035 µg/mL (≈ 0.0517 µM) | 0.2 nM |  | 
CCC(=O)CCCCC[C@@H]1NC(=O)[C@H]2CCCCN2C(=O)[C@H]([C@@H](C)CC)NC(=O)[C@H](Cc2cn(CCN)c3ccccc23)NC1=O |  | > 1 µg/mL | 0.1 µg/mL (≈ 0.157 µM) | 1.3 nM |  | 
CCC(=O)CCCCC[C@@H]1NC(=O)[C@H]2CCCCN2C(=O)[C@H]([C@@H](C)CC)NC(=O)[C@H](Cc2cn(CC)c3ccccc23)NC1=O | 10 nM | 0.05 µg/mL (≈ 0.0804 µM) | 0.18 µg/mL (≈ 0.289 µM) |  |  | 
CCC(=O)CCCCC[C@@H]1NC(=O)[C@H]2CCCCN2C(=O)[C@H]([C@@H](C)CC)NC(=O)[C@H](Cc2cn(C)c3ccccc23)NC1=O | 5 nM | 0.125 µg/mL (≈ 0.206 µM) | 0.02 µg/mL (≈ 0.0329 µM) |  |  | 
CCC(=O)CCCCC[C@@H]1NC(=O)[C@H]2CCCCN2C(=O)[C@H]([C@@H](C)CC)NC(=O)[C@H](Cc2cn(OC)c3ccccc23)NC1=O [APICIDIN] |  | 0.094 µg/mL (≈ 0.151 µM) | 0.058 µg/mL (≈ 0.093 µM) |  | 89 ng/mL | 4 nM
